Experimental data from patent US20230002377A1, “THERAPEUTIC COMBINATIONS OF DRUGS AND METHODS OF USING THEM” (HARMONY BIOSCIENCES, LLC, priority 2020, published 2023).

Legend:
[1] = biological target: Transporter, Norepinephrine (NET) (Homo sapiens, UniProt P23975); assay: NET radioligand binding ([125I] RTI-55), Eurofins; conditions: for inhibition at 0.01 µM: read-out: NET, % inhibition, 10 nM compound; for inhibition at 0.1 µM: read-out: NET, % inhibition, 100 nM compound
Method: Source: Human recombinant MDCK cells;
Incubation Time/Temp: 3 hours @ 4° C.;
(§2) Incubation Buffer: 50 mM Tris-HCl, pH 7.4, 100 mM NaCl, 1 μM Leupeptin, 10 μM PMSF;
Non-Specific Ligand: 10.0 μM Desipramine;
(§3) Quantitation Method: Radioligand Binding;

[2] = biological target: Transporter, Dopamine (DAT) (Homo sapiens, UniProt Q01959); assay: DAT radioligand binding ([125I] RTI-55), Eurofins; conditions: read-out: DAT, % inhibition, 100 nM compound
Sequence of Transporter, Dopamine (DAT) (Q01959 whole entry): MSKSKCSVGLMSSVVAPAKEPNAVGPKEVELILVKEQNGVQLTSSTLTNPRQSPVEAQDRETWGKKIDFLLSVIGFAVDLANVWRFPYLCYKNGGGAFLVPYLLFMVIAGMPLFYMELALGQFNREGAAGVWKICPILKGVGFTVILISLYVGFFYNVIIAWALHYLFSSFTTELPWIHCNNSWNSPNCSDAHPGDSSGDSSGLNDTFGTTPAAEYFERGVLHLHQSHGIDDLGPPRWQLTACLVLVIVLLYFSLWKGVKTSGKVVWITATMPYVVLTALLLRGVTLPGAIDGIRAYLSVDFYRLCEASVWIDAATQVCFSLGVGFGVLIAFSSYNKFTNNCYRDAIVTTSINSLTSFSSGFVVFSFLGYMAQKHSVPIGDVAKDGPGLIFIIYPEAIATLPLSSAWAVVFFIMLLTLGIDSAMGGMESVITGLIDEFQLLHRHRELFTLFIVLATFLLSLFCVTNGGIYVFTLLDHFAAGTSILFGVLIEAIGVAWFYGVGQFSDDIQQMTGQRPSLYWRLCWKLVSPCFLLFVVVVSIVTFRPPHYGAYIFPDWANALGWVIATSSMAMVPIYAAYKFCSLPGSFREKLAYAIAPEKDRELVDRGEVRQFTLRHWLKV
Method: Source: Human recombinant CHO—S cells;
Incubation Time/Temp: 3 hours @ 4° C.;
as §2
Non-Specific Ligand: 10.0 μM Nomifensine;
Specific Binding: 90% (Historical Values);
as §3

DAT = biological target: T1, DAT (Homo sapiens, UniProt Q01959); conditions: approved monoamine reuptake inhibitors at efficacious doses, cited from earlier work
T1 construct: host or cells: living brain (PET)
T1 sequence (Q01959 whole entry): as above

NET = NET (Homo sapiens, UniProt P23975); conditions: at efficacious doses; cited from earlier work
Sequence of NET (P23975 whole entry): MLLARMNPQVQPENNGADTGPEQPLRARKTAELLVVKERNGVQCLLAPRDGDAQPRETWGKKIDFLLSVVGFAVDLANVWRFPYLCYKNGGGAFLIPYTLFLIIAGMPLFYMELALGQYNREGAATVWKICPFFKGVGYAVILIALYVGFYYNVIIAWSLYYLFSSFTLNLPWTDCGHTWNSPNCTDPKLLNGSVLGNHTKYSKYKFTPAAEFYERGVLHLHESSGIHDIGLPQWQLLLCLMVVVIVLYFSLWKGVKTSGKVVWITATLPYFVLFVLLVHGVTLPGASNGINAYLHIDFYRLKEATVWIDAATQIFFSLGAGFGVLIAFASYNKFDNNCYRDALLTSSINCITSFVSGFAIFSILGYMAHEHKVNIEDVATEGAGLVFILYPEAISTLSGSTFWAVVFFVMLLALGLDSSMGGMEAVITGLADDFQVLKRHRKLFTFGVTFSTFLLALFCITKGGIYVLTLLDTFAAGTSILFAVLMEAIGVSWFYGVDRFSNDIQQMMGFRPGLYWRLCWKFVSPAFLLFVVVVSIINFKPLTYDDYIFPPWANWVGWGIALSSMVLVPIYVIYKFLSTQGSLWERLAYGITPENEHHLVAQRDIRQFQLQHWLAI

PWS patients = conditions: standard mg/day dosing, cited from earlier work
[3] = Metabolite level of Formula II in phase I clinical trial; format: in vivo, human; conditions: healthy volunteers
Source text: (§1) By substituting the hydrogens with deuterium on the carbon(s) adjacent to the nitrogen which is acetylated (see for example, Examples 5 to 7), acetylation process can be slowed down to reduce the formation of this metabolite.

MCHR1 = MCHR1 (Homo sapiens, UniProt Q99705); assay: Contribution of N-acetyl metabolite to MCHR1 antagonism
Sequence of MCHR1 (Q99705 whole entry, species assumed): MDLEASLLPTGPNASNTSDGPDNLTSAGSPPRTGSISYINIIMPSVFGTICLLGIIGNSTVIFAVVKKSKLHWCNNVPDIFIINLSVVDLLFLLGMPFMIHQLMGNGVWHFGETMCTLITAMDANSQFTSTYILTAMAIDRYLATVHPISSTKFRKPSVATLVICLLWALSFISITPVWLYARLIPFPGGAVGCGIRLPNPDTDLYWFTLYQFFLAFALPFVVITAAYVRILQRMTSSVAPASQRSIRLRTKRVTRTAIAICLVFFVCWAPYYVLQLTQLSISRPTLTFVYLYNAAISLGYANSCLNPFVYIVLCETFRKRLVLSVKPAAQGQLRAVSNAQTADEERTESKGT
Source text: as §1

Sequence of Transporter, Norepinephrine (NET) (P23975 whole entry): as the sequence (P23975 whole entry) above

## [2H]C1([2H])NCC(c2ccc(Cl)c(Cl)c2)c2ccc(-c3ccc4ncnn4c3)cc21 (single isomer, unassigned) [Compound 12A, 7-([1,2,4]triazolo[1,5-a]pyridin-6-yl)-4-(3,4-dichlorophenyl)-1,2,3,4-tetrahydroisoquinoline-1,1-d2]
[1]
  inhibition at 0.01 µM: 34%
  inhibition at 0.1 µM: 79%

## [2H]C1([2H])NCc2cc(-c3ccc4ncnn4c3)ccc2C1([2H])c1ccc(Cl)c(Cl)c1 (single isomer, unassigned) [Compound 16B, 7-([1,2,4]triazolo[1,5-a]pyridin-6-yl)-4-(3,4-dichlorophenyl)-1,2,3,4-tetrahydroisoquinoline-3,3,4-d3]
[2]
  inhibition at 0.1 µM: 76%
[1]
  inhibition at 0.01 µM: 49%
  inhibition at 0.1 µM: 72%

## CC(NC(C)(C)C)C(=O)c1cccc(Cl)c1 (stereo not shown) [Bupropion, bupropion]
DAT; lowest reported
  Lowest Occupancy DAT: 14% (Bupropion)

## COc1ccc(C(CN(C)C)C2(O)CCCCC2)cc1 (stereo not shown) [Venlafaxine, venlafaxine]
NET
  NET occupancy: 8-61%

## COC(=O)C(c1ccccc1)C1CCCCN1 (stereo not shown) [Methylphenidate, methylphenidate]
DAT; highest reported
  Highest Occupancy DAT: 74%

## [2H]C1([2H])NC([2H])([2H])C([2H])(c2ccc(Cl)c(Cl)c2)c2ccc(-c3ccc4ncnn4c3)cc21 (single isomer, unassigned) [Compound 8A, 7-([1,2,4]triazolo[1,5-a]pyridin-6-yl)-4-(3,4-dichlorophenyl)-1,2,3,4-tetrahydroisoquinoline-1,1,3,3,4-d5]
[2]
  inhibition at 0.1 µM: 93%
[1]
  inhibition at 0.01 µM: 29%
  inhibition at 0.1 µM: 86%

## CCOC[C@@H]1[C@@H](c2ccc(Cl)c(Cl)c2)C[C@@H]2CC[C@H]1N2C [tesofensine]
PWS patients; PWS patients
  hyperphagia in patients with the appropriate plasma drug level: hyperphagia controlled completely
  patients with plasma drug levels exceeding the safety levels who discontinued the treatment due to adverse events: 2/3
PWS patients; lowered dose
  efficacy after lowering the dosing for all patients: no efficacy

## CC(=O)N1CCc2c(c3ccc(-n4ccc(OCc5ccc(F)cn5)cc4=O)cc3n2C)C1 [1-(2-acetyl-5-methyl-2,3,4,5-tetrahydro-1H-pyrido[4,3-b]indol-7-yl)-4-((5-fluoropyridin-2-yl)methoxy)pyridin-2(1H)-one]
[3]
  amount of metabolite comparing to parent compound Formula II: very significant
MCHR1
  contribution to the pharmacology of MCHR1 antagonism: does not contribute to the pharmacology of MCHR1 antagonism
